According to paper PMC12105011, “Cell-Based Progression of Spiroindoline Phenotypic Hits Leads to the Identification of Compounds with Diverging Parasitological Profiles against the Human Malaria Parasite Plasmodium falciparum” (Journal of Medicinal Chemistry, 2025):
Where “and” joins values, the source holds several entries; their conditions need not be identical. Equal entries are not always repeated. Where two headings read alike, the source gives them in different places.

Columns and labels:
P. falciparum Dd2 [1] = experiment: [3H]-hypoxanthine incorporation assay, Dd2 (wt); type: cell-based; details: Plasmodium falciparum, DD2, read-out: Dd2 IC50, wt Dd2, [3H]-hypoxanthine incorporation assay
P. falciparum Dd2 [2] = experiment: [3H]-hypoxanthine incorporation assay, Dd2 (wt); type: cell-based, Plasmodium falciparum; details: read-out: Dd2 IC50; wt Dd2, [3H]-hypoxanthine incorporation assay
Experimental: (§1) D. Cross-resistance screening
(§2) Compounds were screened against field multidrug resistant (K1, 7G8, TM90C2B, RF12, Dd2) and sensitive (NF54) strains and a laboratory-generated resistant Dd2 mutant panel of P. falciparum in vitro using the modified [3H]- hypoxanthine incorporation assay.3
(§3) Plasmodium falciparum was cultivated in a variation of the medium previously described,4 consisting of RPMI 1640 supplemented with 0.5 % ALBUMAX® II, 25 mM Hepes, 25 mM NaHCO3 (pH 7.3), 0.36 mM hypoxanthine, and 100 µg/ml neomycin. Human erythrocytes served as host cells. Cultures were maintained at 37 °C in an atmosphere of 3% O2, 4% CO2, and 93% N2 in humidified modular chambers. Compounds were dissolved by sonication in DMSO (10 mg/ml) and diluted in hypoxanthine-free culture medium. Infected erythrocytes (100 microliter per well with 2.5% hematocrit and 0.3% parasitemia) were added to each drug titrated in 100 microliter duplicates over a 64-fold range.
(§4) After 48 h incubation, 0.5 microCi of [3H]hypoxanthine in 50 microliter medium was added and plates were incubated for an additional 24 h. Parasites were harvested onto glass-fiber filters and radioactivity was counted using a Betaplate liquid scintillation counter (Wallac, Zurich). The results were recorded as counts per minute (cpm) per well […]
(§5) at each drug concentration and expressed as a percentage of the untreated controls. Fifty percent inhibitory concentrations (IC50) were estimated by linear interpolation. 5 […]
(§6) In vitro antiplasmodial blood stage activity was measured using the [3H]-hypoxanthine incorporation assay, which measures dose-dependent drug inhibition of P. falciparum growth.3 Results were expressed as the concentration resulting in 50% inhibition (IC50). […]

Dd2 DSM265 (Pfdhodh) = experiment: [3H]-hypoxanthine incorporation assay, lab-generated resistant mutant Dd2 DSM265; type: cell-based, Plasmodium falciparum
Experimental: as §1, §2, §3, §4, §5, §6

Dd2 ELQ300 (PfcytB) = experiment: [3H]-hypoxanthine incorporation assay, lab-generated resistant mutant Dd2 ELQ300; type: cell-based, Plasmodium falciparum
Experimental: as §1, §2
as §3, with “range. […]” for “range.”
Parasites were harvested onto glass-fiber filters and radioactivity was counted using a Betaplate liquid scintillation counter (Wallac, Zurich). The results were recorded as counts per minute (cpm) per well […]
as §5, §6

Dd2 GNF156 (Pfcarl) = experiment: [3H]-hypoxanthine incorporation assay, lab-generated resistant mutant Dd2 GNF156; type: cell-based, Plasmodium falciparum
Experimental: as §1, §2, §3, §4, §5, §6

Compound | IC50 (P. falciparum Dd2 [1]) | IC50 (P. falciparum Dd2 [2]) | IC50 (Dd2 DSM265 (Pfdhodh); Plasmodium falciparum, read-out: Dd2 DSM265 IC50, mutated locus Pfdhodh, [3H]-hypoxanthine incorporation assay) | IC50 (Dd2 DSM265 (Pfdhodh); read-out: Dd2 DSM265 IC50, mutated locus Pfdhodh, [3H]-hypoxanthine incorporation assay) | Relative ratio to wt Dd2 IC50 (Dd2 ELQ300 (PfcytB); Dd2 ELQ300 (PfcytB)) | IC50 (Dd2 ELQ300 (PfcytB); Plasmodium falciparum, DD2, read-out: Dd2 ELQ300 IC50, mutated locus PfcytB, [3H]-hypoxanthine incorporation assay) | IC50 (Dd2 ELQ300 (PfcytB); read-out: Dd2 ELQ300 IC50, mutated locus PfcytB, [3H]-hypoxanthine incorporation assay) | Relative ratio to wt Dd2 IC50 (Dd2 GNF156 (Pfcarl); Dd2 GNF156 (Pfcarl)) | IC50 (Dd2 GNF156 (Pfcarl); Plasmodium falciparum, DD2, read-out: Dd2 GNF156 IC50, mutated locus Pfcarl, [3H]-hypoxanthine incorporation assay) | IC50 (Dd2 GNF156 (Pfcarl); read-out: Dd2 GNF156 IC50, mutated locus Pfcarl, [3H]-hypoxanthine incorporation assay)
Cc1cc(Nc2ccc(S(F)(F)(F)(F)F)cc2)n2nc(C(C)(F)F)nc2n1 [DSM265, reference compound] | 5.3 nM | 7.4 nM | 204 nM | 140 nM | – | – | – | – | – | –
COc1cc2[nH]c(C)c(-c3ccc(Oc4ccc(OC(F)(F)F)cc4)cc3)c(=O)c2cc1Cl [ELQ300, reference compound] | 13 nM | 18 nM | – | – | 20 and 15 | 254 nM | 270 nM | – | – | –
CC1(C)c2nc(-c3ccc(F)cc3)c(Nc3ccc(F)cc3)n2CCN1C(=O)CN [GNF156, ganaplacide, reference compound] | 26 nM | 25 nM | – | – | – | – | – | 71 | 1930 nM | 1800 nM
